In data set [1] the test system is MCF-7 cells. In words: Cell viability assay (MTT assay), MCF-7. To be noted: 0.125 to 10 μM, 48 hours; dose-dependent decrease of cell viability.
Protocol: (§1) Cells were seeded in a 24-well microtiter plate (2×10^4 cells/well) overnight, then treated with DMSO (Control) or various concentrations of test compounds, and incubated for 48 hours. The effect of test compounds on cell growth was examined by the MTT (3-(4,5-dimethylthiazol-2-yl)-2,5-diphenyl tetrazolium bromide) assay. Briefly, 40 μl of MTT solution (2 mg/ml, Sigma Chemical Co.) was added to each well to make a final volume of 500 μl and incubated for 1 h at 37° C. The supernatant was aspirated, and the MTT-formazan crystals formed by metabolically viable cells were dissolved in 200 μl of DMSO. Finally, the absorbance at O.D. 550 nm was detected by enzyme-linked immunosorbent assay (ELISA) reader.
Data set [2] relates to HL-60 leukemia cancer cell line. Nature of the data set: Cytotoxic activity, MTT assay, HL-60. To be noted: 50% growth-inhibitory effect. The data set is classed as cell-based, human.
Protocol: as §1
In data set [3] the test system is A549 lung cancer cell line. In words: Cytotoxic activity, MTT assay, A549. It is filed as cell-based, human. To be noted: 48 h, 50% growth-inhibitory effect.
Protocol: as §1
In data set [4] the test system is Hep G2 hepatoma cancer cell line. Nature of the data set: Cytotoxic activity, MTT assay, Hep G2. The data set is classed as cell-based, human. The conditions noted are these: 48 h, 50% growth-inhibitory effect. On the technique in general: Tetrazolium assays rely on reduction of a dye to a coloured formazan, in cell work by metabolically active cells.
Protocol: as §1
In data set [5] the test system is A498 renal cancer cell line. In words: Cytotoxic activity, MTT assay, A498. The conditions noted are these: 48 h, 50% growth-inhibitory effect. It is filed as cell-based, human.
Protocol: as §1
Data set [6] deals with NCI-H226 non-small cell lung cancer cell line. Nature of the data set: Cytotoxic activity, MTT assay, NCI-H226. The data set is classed as cell-based, human. The conditions noted are these: 48 h, 50% growth-inhibitory effect.
Protocol: as §1
In data set [7] the test system is HCT-116 colon cancer cell line. Nature of the data set: Cytotoxic activity, MTT assay, HCT-116. The conditions noted are these: 48 h, 50% growth-inhibitory effect, read-out: IC50 HCT116. The data set is classed as cell-based, human.
Protocol: as §1
Data set [8] concerns CT-26 tumor cells. Nature of the data set: CT-26 intraperitoneal tumor model. The conditions noted are these: for day post challenge by which all mice were dead: excipient control all dead 40 days after. The data set is classed as in vivo, mice. The method, then: 30 male 6-week-old Balb/c mice, were purchased from the National Animal cancer and maintained in pressurized ventilated cage according to institutional regulations. CT-26 (1×10^6) cells were injected into peritoneal cavities at day 0. Animals were randomly assigned to anti-tumoral efficacy study (n=10). Seven days after tumor inoculation, oral administration of 5 and 10 mg/kg of I-1-b (QD for seven times) to the mice was carried out. The survival rate and body weight of the animals was monitored.

The mark [9] stands for this setting: Homo sapiens, Table 2, HL-60 cells, 48 h, read-out: IC50.

Structures can show the parent of a compound that is named as a salt. Where two headings read alike, the source gives them in different places.

The term melting point denotes the temperature of the solid-liquid transition. `O=P(O)(O)Oc1cc(-c2cccc(F)c2)nc2cc3c(cc12)OCO3` [Compound I-2-b, 2-(3′-Fluorophenyl)-6,7-methylenedioxyquinolin-4-yl-phosphate] showed a melting point greater than 300 °C. In addition, in data set [1], the “cytotoxicity against MCF-7 cells (cell viability, MTT)” value (“cytotoxicity against MCF-7 cells” for short) is “significant cytotoxicity”.

Take `COc1ccc2nc(-c3cccc(F)c3)cc(OP(=O)(O)O)c2c1` [Compound I-5-b, 6-Methoxy-2(3-′fluorophenyl)-quinolin-4-yl-phosphate]: the melting point was greater than 300 °C. Besides, the “cytotoxicity against MCF-7 cells” value in [1] is “significant cytotoxicity”.

One may read the IC50 as the concentration needed to halve the response being measured. As for `O=c1cc(-c2ccc[se]2)[nH]c2cc3c(cc12)OCO3` [Compound I-7-d, 2-(2′-Selenophenyl)-6,7-(methylenedioxy)-4-quinolone], the IC50 came out at 0.5 µM in data set [2] (Table 1, 48 h, read-out: IC50 HL-60); 8.1 µM in [3]; 4.1 µM in data set [4]; 2700 nM in [5]; 4.9 µM in [6]; 900 nM in [7].

In the case of `CCN(CC)Cc1cccc(-c2cc(=O)c3cc(OC)ccc3[nH]2)c1` [Compound I-10-f, 2-{3-[(Diethylamino)methyl]phenyl}-6-methoxyquinolin-4(1H)-one], the IC50 in data set [2] (setting [9]) is greater than 50 µM.

As for `CCN(CC)Cc1ccc2[nH]c(-c3ccccc3F)cc(=O)c2c1` [Compound I-9-e, 6-[(Diethylamino)methyl]-2-(2-fluorophenyl)quinolin-4(1H)-one], the IC50 in data set [2] (setting [9]) stood at 5.8 µM.

Compound `O=P(O)(O)Oc1cc(-c2ccccc2)nc2ccc(F)cc12` [Compound I-3-b, 6-Fluoro-2-phenylquinolin-4-yl-phosphate] yielded a melting point greater than 300 °C. Further, the “cytotoxicity against MCF-7 cells” value in data set [1] is given as “significant cytotoxicity”.

`O=P(O)(O)Oc1cc(-c2ccccc2)nc2ccccc12` (as salt: phosphate) [Compound I-4-b, 2-Phenylquinolin-4-yl-phosphate] yielded a melting point greater than 300 °C.

With `O=P(O)(O)Oc1cc(-c2ccccc2)nc2ccccc12` [Compound I-4-b, 2-Phenylquinolin-4-yl-phosphate], in data set [1], the “cytotoxicity against MCF-7 cells” value is recorded as “significant cytotoxicity”.

For `CCN(CC)Cc1ccc2[nH]c(-c3ccccc3)cc(=O)c2c1` [Compound I-8-e, 6-[(Diethylamino)methyl]-2-phenylquinolin-4(1H)-one], the IC50 in [2] (setting [9]) is 15 µM.

On to `O=P(O)(O)Oc1cc(-c2ccccc2F)nc2cc3c(cc12)OCO3` [Compound I-1-b, 2-(2′-Fluorophenyl)-6,7-methylenedioxyquinolin-4-yl-phosphate], for which the “cytotoxicity against MCF-7 cells” value in data set [1] is “significant cytotoxicity”. Further, in data set [8] (5 mg/kg/day QD×7), the “average life span prolonged by” value is listed as 120% and the “day post challenge by which all mice were dead” value is no more than 45 days. Besides, in data set [8] (10 mg/kg/day QD×7), the “average life span prolonged by” value is given as 140% and the “day post challenge by which all mice were dead” value was no more than 50 days. For the same compound, the maximally tolerated dose entry in data set [8] (Balb/c mice, oral, up to 10 mg/kg/day QD×7) is recorded as “not achieved”.
